# Where a name gives a salt, the structure may show the parent alone.
# Assay: Water uptake and stability of the succinate salt under relative humidity
# Assay type: physicochemical
# Settings: about 20° C. to about 30° C.
# Procedure: To a suspension of NaH (40.9 g, 1.02 mol, 60% in oil) in anhydrous THF (750 mL) is added 3-methylamino-propan-1-ol (115 g, 1.21 mol) at about 20-30° C. dropwise over 30 min. The mixture is stirred for 30 min. Then, a solution of [5-chloro-6-(2,4,6-trifluoro-phenyl)-[1,2,4]triazolo[1,5-a]pyrimidin-7-yl]-((1S)-2,2,2-trifluoro-1-methyl-ethyl)-amine (150 g, 0.379 mol) in THF (150 mL) is added slowly over 15 min. The mixture is heated to 60° C. and stirred for 16 h, then cooled to 0-6° C. Cold water (1500 mL) is added dropwise while maintain the temperature between 10±3° C. THF is removed by distillation. The reaction mixture is extracted with t-butylmethyl ether (TBME, 2×1000 mL) and to the separated aqueous phase is added in portions succinic acid (296 g, 2.51 mol) is added in portions and followed by addition of TBME (1000 mL). The mixture is cooled to 3±3° C. and stirred for 1 h. The crude solid product is filtered, washed with cold water (150 mL) and TBME (2×400 mL). The wet solid is dissolved into water (2000 mL) at about 75° C. The solution is filtered at 60-70° C. and cooled to 0° C. over 1 h and stirred for 1 h at this temperature. The solid is filtered and dried at 35° C./10 mmHg for 20 h to give a white solid in anhydrous form (175 g, 80%, >99% HPLC area purity and 99% ee). […]
smiles,measurement,setting,value
"CNCCCOc1cc(F)c(-c2c(Cl)nc3ncnn3c2N[C@@H](C)C(F)(F)F)c(F)c1 [Example 4, 5-Chloro-6-{2,6-difluoro-4-[3-(methylamino)propoxy]phenyl}-N-[(1S)-2,2,2-trifluoro-1-methylethyl][1,2,4]triazolo[1,5-a]pyrimidin-7-amine Succinate Salt Dihydrate]",stability of the dihydrate,5%-100% relative humidity,stable
same,water absorbed by the anhydrous compound,"anhydrous succinate salt, drying dish of 80%-100% relative humidity, 24 h, uptake then stopped",5.8 % wt

# Source: patent publication US7396835B2, “Process for the preparation of tubulin inhibitors” (Wyeth, priority 2003, dated 2008)
